Results on 19 molecules are retold here after patent publication US20230072683A1, “PYRIDO-PYRIMIDIN DERIVATIVES AND PHARMACEUTICAL COMPOSITION, FOR USE IN PREVENTING OR TREATING PI3 KINASE RELATED DISEASES, COMPRISING SAME AS ACTIVE INGREDIENT” (BORYUNG PHARMACEUTICAL CO., LTD, priority 2019, published 2023).

By inhibition is commonly meant the drop in the measured response relative to a control, in per cent.

Like-named read-outs stand apart in the source and are kept apart here.

In test [1] the target is PI3K-δ (PI3K(p1108/p857) (h)) (Homo sapiens, UniProt O00329). Kind of test: Evaluation of inhibitory activity against PI3K-δ (HTRF kinase assay). The test is classed as biochemical. The conditions noted are these: for inhibition at 0.01 µM: compound concentration 0.01 μM, read-out: EXP_VALUE(% Inhibition) PI3K-δ 0.01 μM; for inhibition at 0.1 µM: read-out: EXP_VALUE(% Inhibition) PI3K-δ 0.1 μM. An outline of the steps: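 HTRF read-out (665/620 nm ratio ×10000) used Eu-labelled anti-GST, GST-tagged GRP1 PH domain and streptavidin-allophycocyanin after EDTA/PIP3 stop.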
On the technique in general: In TR-FRET formats the signal depends on donor and acceptor labels being close together.

A further test has as its target DNA-PK(h) (Homo sapiens, UniProt P78527). The test is described as follows: Evaluation of inhibitory activity against DNA-PK (HTRF kinase assay, GST-cMyc-p53 substrate). Type of test: biochemical. Conditions: for inhibition at 0.01 µM: compound concentration 0.01 μM, read-out: EXP_VALUE(% Inhibition) DNA-PK(h) 0.01 μM; for inhibition at 0.1 µM: read-out: EXP_VALUE(% Inhibition) DNA-PK(h) 0.1 μM. An outline of the steps: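 Human DNA-PK with 50 μM GST-cMyc-p53 substrate; reaction started with Mg/ATP, run 30 min at room temperature, stopped with EDTA. Phospho-Ser15 p53 detected by HTRF (Eu anti-phospho-Ser15, d2 anti-GST), signal = 10000×(Em 665/Em 620).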

PI3K-δ (PI3K(p1108/p857) (h)), sequence (O00329 whole entry, the tested form may be a part): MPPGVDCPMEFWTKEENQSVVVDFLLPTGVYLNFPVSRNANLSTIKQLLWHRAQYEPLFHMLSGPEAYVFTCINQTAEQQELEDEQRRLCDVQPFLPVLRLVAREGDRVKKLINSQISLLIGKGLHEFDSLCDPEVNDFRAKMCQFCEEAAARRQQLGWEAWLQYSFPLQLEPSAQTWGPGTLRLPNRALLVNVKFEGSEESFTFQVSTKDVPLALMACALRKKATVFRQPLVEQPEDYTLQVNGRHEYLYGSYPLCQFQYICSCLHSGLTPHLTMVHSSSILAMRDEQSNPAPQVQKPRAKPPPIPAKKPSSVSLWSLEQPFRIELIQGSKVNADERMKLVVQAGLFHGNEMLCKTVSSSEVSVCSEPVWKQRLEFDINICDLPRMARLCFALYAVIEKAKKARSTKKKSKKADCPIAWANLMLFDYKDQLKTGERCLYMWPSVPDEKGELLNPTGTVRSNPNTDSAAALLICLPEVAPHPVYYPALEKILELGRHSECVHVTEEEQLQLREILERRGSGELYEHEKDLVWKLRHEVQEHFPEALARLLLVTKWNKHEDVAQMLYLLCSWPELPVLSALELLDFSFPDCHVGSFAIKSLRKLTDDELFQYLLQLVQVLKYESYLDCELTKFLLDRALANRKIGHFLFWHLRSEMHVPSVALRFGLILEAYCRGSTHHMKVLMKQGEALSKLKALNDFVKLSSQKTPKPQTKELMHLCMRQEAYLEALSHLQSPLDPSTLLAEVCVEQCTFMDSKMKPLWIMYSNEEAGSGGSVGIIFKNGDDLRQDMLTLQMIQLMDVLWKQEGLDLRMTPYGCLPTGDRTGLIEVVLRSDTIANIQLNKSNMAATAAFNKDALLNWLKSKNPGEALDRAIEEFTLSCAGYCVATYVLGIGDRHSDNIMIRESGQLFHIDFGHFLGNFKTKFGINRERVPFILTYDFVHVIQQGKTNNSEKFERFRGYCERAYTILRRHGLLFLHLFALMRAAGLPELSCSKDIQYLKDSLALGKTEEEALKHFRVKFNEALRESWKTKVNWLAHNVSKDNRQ
PI3K-δ (PI3K(p1108/p857) (h)), sequence (P27986 whole entry partner, the tested form may be a part): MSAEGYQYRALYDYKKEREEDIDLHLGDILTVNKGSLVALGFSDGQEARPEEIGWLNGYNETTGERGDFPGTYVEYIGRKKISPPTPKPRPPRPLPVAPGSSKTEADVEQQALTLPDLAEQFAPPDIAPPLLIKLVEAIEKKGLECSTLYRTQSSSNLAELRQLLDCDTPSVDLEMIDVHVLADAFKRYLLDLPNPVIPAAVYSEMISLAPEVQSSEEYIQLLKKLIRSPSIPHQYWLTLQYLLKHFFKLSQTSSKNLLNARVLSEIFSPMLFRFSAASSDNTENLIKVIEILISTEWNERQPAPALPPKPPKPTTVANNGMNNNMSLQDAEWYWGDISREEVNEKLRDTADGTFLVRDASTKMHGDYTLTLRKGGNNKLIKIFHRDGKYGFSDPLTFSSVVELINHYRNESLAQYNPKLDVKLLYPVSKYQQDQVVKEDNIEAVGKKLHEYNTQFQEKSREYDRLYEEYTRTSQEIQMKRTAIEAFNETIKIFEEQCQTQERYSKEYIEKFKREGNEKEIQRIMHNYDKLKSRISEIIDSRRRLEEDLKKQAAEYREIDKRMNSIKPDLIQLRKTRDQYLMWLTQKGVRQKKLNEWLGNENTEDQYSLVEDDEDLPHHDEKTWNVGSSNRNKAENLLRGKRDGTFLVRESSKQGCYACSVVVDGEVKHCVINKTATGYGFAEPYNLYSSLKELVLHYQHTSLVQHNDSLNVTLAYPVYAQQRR

In the case of `C[C@H](Nc1ncnc2[nH]ccc(=O)c12)c1c(Cl)c2cccc(SCc3ccc(Cl)cc3)c2c(=O)n1-c1ccccc1` [Example 369, (S)-4-((1-(4-chloro-8-((4-chlorobenzyl)thio)-1-oxo-2-phenyl-1,2-dihydroisoquinolin-3-yl)ethyl)amino)pyrido[2,3-d]pyrimidin-5(8H)-one], the inhibition at 0.01 µM in test [1] stood at 5%; on DNA-PK(h) it was 14%. Further, the inhibition at 0.1 µM is 27% in test [1] (compound concentration 0.1 μM) and 54% on DNA-PK(h) (compound concentration 0.1 μM).
Take `C[C@H](Nc1ncnc2[nH]ccc(=O)c12)c1c(Cl)c2cccc(C(=O)C3CC3)c2c(=O)n1-c1ccccc1` [Example 269, (S)-4-((1-(4-chloro-8-(cyclopropanecarbonyl)-1-oxo-2-phenyl-1,2-dihydroisoquinolin-3-yl)ethyl)amino)pyrido[2,3-d]pyrimidin-5(8H)-one]: the results for the inhibition at 0.01 µM (in test [1]; on DNA-PK(h)) were 37% and 26%, respectively.
Consider `C[C@H](Nc1ncnc2[nH]ccc(=O)c12)c1c(Cl)c2cccc(N3CCC[C@H]3CN3CCCC3)c2c(=O)n1-c1ccccc1` [Example 338, 4-(((S)-1-(4-chloro-1-oxo-2-phenyl-8-((S)-2-(pyrrolidin-1-ylmethyl)pyrrolidin-1-yl)-1,2-dihydroisoquinolin-3-yl)ethyl)amino)pyrido[2,3-d]pyrimidin-5(8H)-one], for which the inhibition at 0.01 µM is 3% in test [1] and -2% at DNA-PK(h). Also, the figures for the inhibition at 0.1 µM (in test [1] (compound concentration 0.1 μM); at DNA-PK(h) (compound concentration 0.1 μM)) were 19% and 35%, respectively.
In the case of `CCSc1cccc2c(Cl)c([C@H](C)Nc3ncnc4[nH]ccc(=O)c34)n(-c3ccccc3)c(=O)c12` [Example 434, (S)-4-((1-(4-chloro-8-(ethylthio)-1-oxo-2-phenyl-1,2-dihydroisoquinolin-3-yl)ethyl)amino)pyrido[2,3-d]pyrimidin-5(8H)-one], the inhibition at 0.1 µM in test [1] (compound at 0.1 μM) came out at 8%; on DNA-PK(h) (compound at 0.1 μM), 32%.
For the molecule `Cc1ccc(-c2cccc3c(Cl)c([C@H](C)Nc4ncnc5[nH]ccc(=O)c45)n(-c4ccccc4)c(=O)c23)s1` [Example 387, (S)-4-((1-(4-chloro-8-(5-methylthiophen-2-yl)-1-oxo-2-phenyl-1,2-dihydroisoquinolin-3-yl)ethyl)amino)pyrido[2,3-d]pyrimidin-5(8H)-one], the inhibition at 0.1 µM in test [1] (compound at 0.1 μM) amounted to 72%; at DNA-PK(h) (compound at 0.1 μM) it was 58%.
As for `CSc1ccc(-c2cccc3c(Cl)c([C@H](C)Nc4ncnc5[nH]ccc(=O)c45)n(-c4ccccc4)c(=O)c23)cc1` [Example 143, (S)-4-((1-(4-chloro-8-(4-(methylthio)phenyl)-1-oxo-2-phenyl-1,2-dihydroisoquinolin-3-yl)ethyl)amino)pyrido[2,3-d]pyrimidin-5(8H)-one], the values for the inhibition at 0.01 µM (in test [1]; at DNA-PK(h)) were 48% and 25%, respectively. Also, the inhibition at 0.1 µM was 94% in test [1] (compound concentration 0.1 μM) and 80% at DNA-PK(h) (compound concentration 0.1 μM).
For the molecule `C[C@H](Nc1ncnc2[nH]ccc(=O)c12)c1c(C2CC2)c2cccc(Cl)c2c(=O)n1-c1ccccc1` [Example 65, (S)-4-((1-(8-chloro-4-cyclopropyl-1-oxo-2-phenyl-1,2-dihydroisoquinolin-3-yl)ethyl)amino)pyrido[2,3-d]pyrimidin-5(8H)-one], the inhibition at 0.01 µM in test [1] amounted to 89%; at DNA-PK(h), 58%. For the same molecule, the inhibition at 0.1 µM in test [1] (compound concentration 0.1 μM) amounted to 110%; on DNA-PK(h) (compound concentration 0.1 μM), 90%.
With `C[C@H](Nc1ncnc2[nH]ccc(=O)c12)c1c(Cl)c2cccc(-c3ccc(F)cc3)c2c(=O)n1-c1ccccc1` [Example 63, (S)-4-((1-(4-chloro-8-(4-fluorophenyl)-1-oxo-2-phenyl-1,2-dihydroisoquinolin-3-yl)ethyl)amino)pyrido[2,3-d]pyrimidin-5(8H)-one], the results for the inhibition at 0.01 µM (in test [1]; on DNA-PK(h)) were 95% and 44%, respectively. For the same molecule, the inhibition at 0.1 µM amounted to 96% in test [1] (compound concentration 0.1 μM) and 84% at DNA-PK(h) (compound concentration 0.1 μM).
Regarding `C[C@H](Nc1ncnc2[nH]ccc(=O)c12)c1c(Cl)c2cccc(-c3ccnc(F)c3)c2c(=O)n1-c1ccccc1` [Example 195, (S)-4-((1-(4-chloro-8-(2-fluoropyridin-4-yl)-1-oxo-2-phenyl-1,2-dihydroisoquinolin-3-yl)ethyl)amino)pyrido[2,3-d]pyrimidin-5(8H)-one], the inhibition at 0.01 µM in test [1] worked out at 118%; at DNA-PK(h), 101%.
Turning to `COc1cc(-n2ccc(=O)c3c(N[C@@H](C)c4c(Cl)c5ccccc5c(=O)n4-c4ccccc4)ncnc32)ccn1` [Example 374, (S)-4-((1-(4-chloro-1-oxo-2-phenyl-1,2-dihydroisoquinolin-3-yl)ethyl)amino)-8-(2-methoxypyridin-4-yl)pyrido[2,3-d]pyrimidin-5(8H)-one], the values for the inhibition at 0.1 µM (in test [1] (compound at 0.1 μM); on DNA-PK(h) (compound at 0.1 μM)) were 21% and 14%, respectively.
As for `C[C@H](Nc1ncnc2[nH]ccc(=O)c12)c1c(Cl)c2cccc(NC3CCOC3)c2c(=O)n1-c1ccccc1` (stereo partly drawn) [Example 331, 4-(((1S)-1-(4-chloro-1-oxo-2-phenyl-8-((tetrahydrofuran-3-yl)amino)-1,2-dihydroisoquinolin-3-yl)ethyl)amino)pyrido[2,3-d]pyrimidin-5(8H)-one], the inhibition at 0.01 µM in test [1] is 24%; at DNA-PK(h), 31%. Further, the inhibition at 0.1 µM worked out at 74% in test [1] (compound concentration 0.1 μM) and 76% on DNA-PK(h) (compound concentration 0.1 μM).
Taken in the same sequence, the figures for `C[C@H](Nc1ncnc2[nH]ccc(=O)c12)c1c(Cl)c2cccc(-c3cnc4c(c3)OCCO4)c2c(=O)n1-c1ccccc1` [Example 132, (S)-4-((1-(4-chloro-8-(2,3-dihydro-[1,4]dioxino[2,3-b]pyridin-7-yl)-1-oxo-2-phenyl-1,2-dihydroisoquinolin-3-yl)ethyl)amino)pyrido[2,3-d]pyrimidin-5(8H)-one] were 91%, 89%, 94% and 102%.
Turning to `C[C@H](Nc1ncnc2[nH]ccc(=O)c12)c1c(Cl)c2cccc(-c3cnc(N)nc3)c2c(=O)n1-c1ccccc1` [Example 56, (S)-4-((1-(8-(2-aminopyrimidin-5-yl)-4-chloro-1-oxo-2-phenyl-1,2-dihydroisoquinolin-3-yl)ethyl)amino)pyrido[2,3-d]pyrimidin-5(8H)-one], the inhibition at 0.01 µM in test [1] was determined as 81%; on DNA-PK(h), 78%.
`C[C@H](Nc1ncnc2[nH]ccc(=O)c12)c1c(Cl)c2cccc(-c3ccc4nonc4c3)c2c(=O)n1-c1ccccc1` [Example 240, (S)-4-((1-(8-(benzo[c][1,2,5]oxadiazol-5-yl)-4-chloro-1-oxo-2-phenyl-1,2-dihydroisoquinolin-3-yl)ethyl)amino)pyrido[2,3-d]pyrimidin-5(8H)-one]: the inhibition at 0.01 µM in test [1] was 61%; at DNA-PK(h), 22%.
As for `C[C@H](Nc1ncnc2[nH]ccc(=O)c12)c1c(Br)c2cccc(-c3ccc(F)cc3)c2c(=O)n1-c1ccccc1` [Example 18, (S)-4-((1-(4-bromo-8-(4-fluorophenyl)-1-oxo-2-phenyl-1,2-dihydroisoquinolin-3-yl)ethyl)amino)pyrido[2,3-d]pyrimidin-5(8H)-one], the inhibition at 0.01 µM was 80% in test [1] and 75% at DNA-PK(h). Also, the inhibition at 0.1 µM in test [1] (compound concentration 0.1 μM) is 96%; on DNA-PK(h) (compound concentration 0.1 μM) it was 98%.
On the same counts, the results for `C[C@H](Nc1ncnc2[nH]ccc(=O)c12)c1c(Cl)c2cccc(-c3ccc(-c4ccncc4)cc3)c2c(=O)n1-c1ccccc1` [Example 105, (S)-4-((1-(4-chloro-1-oxo-2-phenyl-8-(4-(pyridin-4-yl)phenyl)-1,2-dihydroisoquinolin-3-yl)ethyl)amino)pyrido[2,3-d]pyrimidin-5(8H)-one] are 75%, 12%, 103% and 75%.
As for `CCN(CC)c1ncc(-c2cccc3c(Cl)c([C@H](C)Nc4ncnc5[nH]ccc(=O)c45)n(-c4ccccc4)c(=O)c23)cn1` [Example 217, (S)-4-((1-(4-chloro-8-(2-(diethylamino)pyrimidin-5-yl)-1-oxo-2-phenyl-1,2-dihydroisoquinolin-3-yl)ethyl)amino)pyrido[2,3-d]pyrimidin-5(8H)-one], the inhibition at 0.01 µM in test [1] is 71%; at DNA-PK(h) it was 66%.
For `C[C@H](Nc1ncnc2[nH]ccc(=O)c12)c1c(Cl)c2cccc(-c3cc(F)cc(Cl)c3)c2c(=O)n1-c1ccccc1` [Example 104, (S)-4-((1-(4-chloro-8-(3-chloro-5-fluorophenyl)-1-oxo-2-phenyl-1,2-dihydroisoquinolin-3-yl)ethyl)amino)pyrido[2,3-d]pyrimidin-5(8H)-one], the inhibition at 0.01 µM is 63% in test [1] and 16% at DNA-PK(h). The inhibition at 0.1 µM was 95% in test [1] (compound concentration 0.1 μM) and 66% on DNA-PK(h) (compound concentration 0.1 μM).
On the same counts, the results for `C[C@H](Nc1ncnc2[nH]ccc(=O)c12)c1c(Cl)c2cccc(B3OC(C)(C)C(C)(C)O3)c2c(=O)n1-c1ccccc1` [Example 2, (S)-4-((1-(4-chloro-1-oxo-2-phenyl-8-(4,4,5,5-tetramethyl-1,3,2-dioxaborolan-2-yl)-1,2-dihydroisoquinolin-3-yl)ethyl)amino)pyrido[2,3-d]pyrimidin-5(8H)-one] are 42%, 56%, 94% and 89%.
